The assay has as its system Plasmodium berghei. The assay can be described thus: Luciferase/luciferin-expressing antifolate-resistant parasites were used to infect a culture of HepG2 cells that were pre-incubated with compounds. Infected hepatocytes emit light due to the luciferase reaction. Assay results are presented as the percent inhibition of light emission compared to control. […]. The assay is classed as functional. Particulars: sporozoite; for IC90: read-out: LUCIFERASE INFECTION ASSAY - IC90.

[1] abbreviates: read-out: LUCIFERASE INFECTION ASSAY - IC50.

Structures are written as SMILES.

With `O=S(=O)(Nc1ccc(Cl)cc1)c1cc(NC(=S)Nc2ccc(Oc3ccccc3)cc2)ccc1N1CCCCC1`, the IC90 is more than 10 µM. In addition, the IC50 (FFLUC_HILL_SLOPE 10.3, FFLUC_R_SQUARED 0.0303, PBLUC_HILL_SLOPE 13.4, PBLUC_R_SQUARED 0.215, read-out: LUCIFERASE INFECTION ASSAY - IC50) is more than 10 µM.

For the molecule `COc1cccc(C2c3sc(=O)[nH]c3SC3C4CCC(C4)C23)c1O` (stereo not drawn), the IC90 was more than 9.13 µM. Further, the IC50 (FFLUC_HILL_SLOPE 0.571, FFLUC_R_SQUARED 0.432, read-out: LUCIFERASE INFECTION ASSAY - IC50) was more than 9.13 µM.

`CC(C)(C)c1ccc(NC(=O)N2CCCN(Cc3ccccc3)CC2)cc1`: the IC90 was more than 9.03 µM. Further, the IC50 under setting [1] came to 8.75 µM.

In the case of `CC(=O)Nc1nc(C(=O)Nc2ccc(Nc3ccccc3)cc2)cs1`, the IC90 is more than 10 µM. The IC50 (HEPG2TOX_HILL_SLOPE 2.43, HEPG2TOX_R_SQUARED 0.519, PBLUC_HILL_SLOPE 2.7, PBLUC_R_SQUARED 0.347, read-out: LUCIFERASE INFECTION ASSAY - IC50) was 4.68 µM.

Consider `O=C1CCCN1c1ccc(S(=O)(=O)Oc2ccc(Cl)cc2)cc1`, for which the IC90 stood at 2.91 µM. The IC50 (HEPG2TOX_HILL_SLOPE 0.952, HEPG2TOX_R_SQUARED 0.945, PBLUC_HILL_SLOPE 2.14, PBLUC_R_SQUARED 0.73, read-out: LUCIFERASE INFECTION ASSAY - IC50) was 1.04 µM.

Take `CNC(=O)c1ccc(CN(C2CC2)S(=O)(=O)c2ccc(C(F)(F)F)cc2)cc1`: the IC90 is more than 10 µM. The IC50 (PBLUC_HILL_SLOPE 1.42, PBLUC_R_SQUARED 0.391, read-out: LUCIFERASE INFECTION ASSAY - IC50) is 3.3 µM.

On to `COc1ccccc1N(CCC#N)C(=O)COC(=O)/C=C/c1ccc(OC(F)F)cc1`, for which the IC90 is more than 10 µM. Further, the IC50 under setting [1] is more than 10 µM.

`Cc1ccc(C(C)(C)CC(C)NCc2ccc(Cl)cc2)o1` (stereo not drawn): the IC90 was more than 10.8 µM. Further, under setting [1], the IC50 is more than 10.8 µM.

Turning to `CCCCNS(=O)(=O)c1ccc2nc(SCC3CCCO3)[nH]c2c1` (stereo not drawn), the IC90 was more than 10 µM. For the setting “HEPG2TOX_HILL_SLOPE 0.14, HEPG2TOX_R_SQUARED 0.119, PBLUC_HILL_SLOPE 2.38, PBLUC_R_SQUARED 0.33, read-out: LUCIFERASE INFECTION ASSAY - IC50”, the IC50 was determined as 9.76 µM.

As for `Cc1ccc(-c2nn(-c3ccccc3)c3[nH]c(-c4ccccc4)cc(=O)c23)cc1`, the IC90 was more than 10 µM. Moreover, the IC50 (FFLUC_HILL_SLOPE 0.301, FFLUC_R_SQUARED 0.0383, PBLUC_HILL_SLOPE 15, PBLUC_R_SQUARED 0.1, read-out: LUCIFERASE INFECTION ASSAY - IC50) is 9.8 µM.

For `O=C(Cn1ncc(Cl)c(Cl)c1=O)N(Cc1cccs1)c1ccc2c(c1)OCCO2`, the IC90 is more than 10 µM. Where the note is “PBLUC_HILL_SLOPE 8.55, 0.379, PBLUC_R_SQUARED 0.113, 0.341, read-out: LUCIFERASE INFECTION ASSAY - IC50”, the IC50 amounted to 6.34 µM.

Regarding `CCN(CC1COc2ccccc2O1)C(=O)c1ccccc1CSc1nc2nc(C)cc(C)n2n1` (stereo not drawn), the IC90 was more than 10 µM. The IC50 under setting [1] is more than 10 µM.

Turning to `COc1cccc(C(=O)Nc2nc3ccc(Br)cn3n2)c1`, the IC90 was more than 9.51 µM. Also, the IC50 (HEPG2TOX_HILL_SLOPE 1.29, HEPG2TOX_R_SQUARED 0.954, read-out: LUCIFERASE INFECTION ASSAY - IC50) was more than 9.51 µM.

As to `Cc1ccc(-c2csc3[nH]c(=S)n(Cc4ccccc4)c(=O)c23)cc1`, the IC90 is more than 10 µM. Besides, the IC50 (HEPG2TOX_HILL_SLOPE 0.131, HEPG2TOX_R_SQUARED 0.154, PBLUC_HILL_SLOPE 0.317, PBLUC_R_SQUARED 0.176, read-out: LUCIFERASE INFECTION ASSAY - IC50) was 7.53 µM.

For the molecule `O=C(Nc1ccc2c[nH]nc2c1)C1=NN(c2ccccc2)C(=O)CC1`, the IC90 is more than 9.9 µM. The IC50 under setting [1] is more than 9.9 µM.

On to `CCCOc1ccccc1NC(=O)COc1nnc2ccccn12`, for which the IC90 was more than 10 µM. The IC50 under setting [1] is more than 10 µM.

`Cc1nn2c(=O)cc(Cn3ccnc3)nc2s1`: the IC90 was more than 10 µM. Also, the IC50 under setting [1] was more than 10 µM.

On to `CCCc1c(C(=O)OCC)cnn1-c1c(Cl)cc(Cl)cc1Cl`, for which the IC90 was more than 9.12 µM. Further, the IC50 (HEPG2TOX_HILL_SLOPE 1.55, HEPG2TOX_R_SQUARED 0.952, PBLUC_HILL_SLOPE 4.67, PBLUC_R_SQUARED 0.0395, read-out: LUCIFERASE INFECTION ASSAY - IC50) is 8.3 µM.

Turning to `COc1cc(-c2nccc3n[nH]c(C)c23)cc(OC)c1OC`, the IC90 was more than 10 µM. The IC50 (HEPG2TOX_HILL_SLOPE 1.13, HEPG2TOX_R_SQUARED 0.879, read-out: LUCIFERASE INFECTION ASSAY - IC50) was more than 10 µM.

For the molecule `CNC(=O)c1cccc(-c2ccc3ncc(-c4cccc(C(F)(F)F)c4)n3n2)c1`, the IC90 was 2.95 µM. Besides, where the note is “HEPG2TOX_HILL_SLOPE 1.58, HEPG2TOX_R_SQUARED 0.903, PBLUC_HILL_SLOPE 3.01, PBLUC_R_SQUARED 0.663, read-out: LUCIFERASE INFECTION ASSAY - IC50”, the IC50 came out at 1.42 µM.

For the molecule `Cc1cc(C)n(-c2ccc(NC(=O)c3ccc(CN4CCCCC4)cc3)cn2)n1`, the IC90 was more than 10 µM. The IC50 (HEPG2TOX_HILL_SLOPE 1.19, HEPG2TOX_R_SQUARED 0.854, PBLUC_HILL_SLOPE 17.4, PBLUC_R_SQUARED 0.154, read-out: LUCIFERASE INFECTION ASSAY - IC50) was 9.79 µM.

With `COc1ccc(OCCN2CCN(c3ccc(S(=O)(=O)NC(C)C)cn3)CC2)cc1`, the IC90 is more than 10 µM. For the same molecule, the IC50 under setting [1] was more than 10 µM.

Consider `CCn1c2ccccc2c2cc(NC(=O)C(C)OC(=O)c3ccc([N+](=O)[O-])o3)ccc21` (stereo not drawn), for which the IC90 was more than 10 µM. Besides, the IC50 under setting [1] was more than 10 µM.

For the molecule `CC(C)(C)c1ccc(-n2c(SCc3ccc(Cl)cc3)nnc2-c2ccccc2Cl)cc1`, the IC90 is more than 7.04 µM. The IC50 (PBLUC_HILL_SLOPE 3.18, PBLUC_R_SQUARED 0.744, read-out: LUCIFERASE INFECTION ASSAY - IC50) was more than 7.04 µM.

In the case of `CN(C)Cc1ccc(CNC(=O)Cc2ccc(-c3ccccc3)cc2)cc1`, the IC90 amounted to 7.76 µM. In addition, the IC50 (HEPG2TOX_HILL_SLOPE 3.86, HEPG2TOX_R_SQUARED 0.943, PBLUC_HILL_SLOPE 3.55, PBLUC_R_SQUARED 0.451, read-out: LUCIFERASE INFECTION ASSAY - IC50) came to 4.18 µM.

Consider `c1ccc(Oc2ccccc2-c2cnn3c(NCc4ccccn4)ccnc23)cc1`, for which the IC90 is more than 8.39 µM. The IC50 (PBLUC_HILL_SLOPE 14.9, PBLUC_R_SQUARED 0.143, read-out: LUCIFERASE INFECTION ASSAY - IC50) turned out to be 8.25 µM.

With `CC(C)(C)NC(=S)N/N=C/c1ccnc(SCc2ccc(Cl)cc2)n1`, the IC90 was more than 8.38 µM. For the same molecule, under “PBLUC_HILL_SLOPE 1.91, PBLUC_R_SQUARED 0.389, read-out: LUCIFERASE INFECTION ASSAY - IC50”, the IC50 turned out to be 5.71 µM.

`CNC(=O)c1sc2scc(C)c2c1C`: the IC90 was more than 14.6 µM. Besides, the IC50 under setting [1] was more than 14.6 µM.

As for `FC(F)(F)/C(=N\C1(C(Cl)(Cl)Cl)Oc2ccccc2O1)NCc1ccco1`, the IC90 is more than 10 µM. The IC50 under setting [1] is more than 10 µM.

Take `O=C(CNc1cccc(S(=O)(=O)N2CCCCC2)c1)NC(=O)NC1CCCC1`: the IC90 was more than 10 µM. For the same molecule, for the setting “HEPG2TOX_HILL_SLOPE 4.49, HEPG2TOX_R_SQUARED 0.873, PBLUC_HILL_SLOPE 2.27, PBLUC_R_SQUARED 0.353, read-out: LUCIFERASE INFECTION ASSAY - IC50”, the IC50 was 7.49 µM.

For the molecule `Cc1nc2ncnn2c(N2CCc3ccccc3C2)c1Cl`, the IC90 was 6.09 µM. Under “FFLUC_HILL_SLOPE 16.4, FFLUC_R_SQUARED 0.0433, HEPG2TOX_HILL_SLOPE 1.21, HEPG2TOX_R_SQUARED 0.855, PBLUC_HILL_SLOPE 2.02, PBLUC_R_SQUARED 0.689, read-out: LUCIFERASE INFECTION ASSAY - IC50”, the IC50 worked out at 2.05 µM.

With `COc1ccc(-c2cnc3cnc(-c4ccc(C(=O)NCCO)cc4)cn23)cc1`, the IC90 amounted to 4.08 µM. Further, the IC50 (PBLUC_HILL_SLOPE 8.42, PBLUC_R_SQUARED 0.632, read-out: LUCIFERASE INFECTION ASSAY - IC50) is 3.15 µM.

Take `COC(=O)c1cc(C#N)c(S(C)(=O)=O)s1`: the IC90 was more than 13.5 µM. The IC50 (HEPG2TOX_HILL_SLOPE 3.75, HEPG2TOX_R_SQUARED 0.937, PBLUC_HILL_SLOPE 11, PBLUC_R_SQUARED 0.132, read-out: LUCIFERASE INFECTION ASSAY - IC50) turned out to be 12.1 µM.

Take `COCc1cccc(-c2cc(-c3cc4ccccc4s3)cnc2N)c1`: the IC90 is more than 9.53 µM. Further, the IC50 (HEPG2TOX_HILL_SLOPE 6.43, HEPG2TOX_R_SQUARED 0.192, PBLUC_HILL_SLOPE 1.27, PBLUC_R_SQUARED 0.564, read-out: LUCIFERASE INFECTION ASSAY - IC50) turned out to be 5.74 µM.

`O=C1NCCN1CCNc1nn2c(-c3cccc(OC(F)(F)F)c3)cnc2s1`: the IC90 was more than 8 µM. The IC50 under setting [1] was more than 8 µM.

With `Cc1occc1NC(=O)N1[C@@H]2CC[C@@H](C2)[C@H]1c1nc2cccc(OCc3ccc(F)cc3)c2[nH]1`, the IC90 is more than 10 µM. Besides, the IC50 under setting [1] is more than 10 µM.

Regarding `COc1ccc(-c2nc(C=C3C(=O)c4ccccc4C3=O)cs2)cc1`, the IC90 was more than 10 µM. Moreover, under setting [1], the IC50 is more than 10 µM.

On to `COC(=O)c1cccc(NC(=S)NC(=O)c2ccc(C(C)(C)C)cc2)c1`, for which the IC90 is more than 8.91 µM. In addition, the IC50 under setting [1] was more than 8.91 µM.

Take `O=C(c1ccc(NS(=O)(=O)c2cccs2)cc1)N1CCC(c2c[nH]c3ccccc23)CC1`: the IC90 is more than 10 µM. Moreover, under setting [1], the IC50 was more than 10 µM.

One may read the IC50 as the concentration at which inhibition is half-maximal. As a reminder, the IC90 is the point of the concentration-response curve where the effect stands at 90%.

Values taken from ChEMBL document CHEMBL4483862, “Open-source discovery of chemical leads for next-generation chemoprotective antimalarials” (2018).
